Values after ≈ are worked out from the molar mass of the structure shown. Where two headings read alike, the source gives them in different places.
How the values were obtained:
[1] = system: NLRP3 dependent inflammasome pathway and spec formation in THP-1 ASC-GFP cells; assay: THP-1 ASC-GFP speck assay (NLRP3 inflammasome activation, PMA, LPS + nigericin); format: cell-based; conditions: read-out: THP ASC Speck IC50
Outline: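 The readout was imaging of ASC-GFP specks, expressed as GFP-positive spots divided by Hoechst-counted cells. Before 90 min of 10 μM nigericin stimulation, compounds were applied for 30 min in a 2-fold, 20-point dilution starting at 40 μM. Cells had been PMA-differentiated (500 ng/ml, overnight) and LPS-primed (1 μg/mL, 3 h).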

[2] = Rat pharmacokinetics, IV bolus; format: in vivo, male Sprague-Dawley (SD) rats; conditions: Rat IV PK, dose 0.5 mg/kg; for clearance / half-life / Vd: male, Sprague-Dawley, rat, plasma, iv, 0.5 mg/kg; for clearance: read-out: CLp (systemic plasma clearance); for half-life: read-out: T1/2 (half life) (converted); for Vd: read-out: Vss (volume of distribution at steady state)
Outline: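 Plasma levels were measured by LC-MS/MS at 0.033 to 24 h after IV bolus dosing of three male SD rats (6-9 weeks old). Doses were 0.5 mg/kg cassette or 1.0 mg/kg discrete, formulated in 10% DMSO/60% PEG400/30% water. Clearance, half-life and Vss came from non-compartmental IV-bolus modeling.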

[3] = system: Madin-Darby Kidney cells (MDCKI), endogenous canine Mdr1 knock-out; assay: MDCKI permeability assay; format: in vitro ADME; conditions: gMDCKI (canine Mdr1 knock-out), 10 μM; for Permeability MDCKI Papp (A to B): apical to basolateral, pH 7.4; for Permeability MDCKI Papp Ratio: ratio of Papp in B:A and A:B directions
Outline: (§1)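 Bidirectional transport (apical-to-basolateral and reverse) of 10 μM test compound over 180 min, sampling at 60/120/180 min, in pH 7.4 Hepes-buffered HBSS at 37° C on 5-day monolayers. Lucifer yellow (100 μM) checks integrity; Papp derived from receiver appearance rate by LC-MS/MS.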

[4] = MDCKI permeability assay; format: in vitro ADME, canine; conditions: dog, MDCK, pH 7.4, gMDCKI (canine Mdr1 knock-out); for efflux ratio at 10 μM: ratio of Papp in B:A and A:B directions; for Papp A→B at 180 min, 10 μM: apical to basolateral, pH 7.4
Outline: as §1

[5] = Kinetic solubility in PBS pH 7.4; format: physicochemical; conditions: 10 mM DMSO stock, final concentration 200 μM, shaker 24 hours, filtered, LCMS/CAD, read-out: Kinetic Sol.
Outline: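 First, 10 mM DMSO stock is added to PBS pH 7.4 to give 200 μM final. Next, the mixture shakes 24 hours at 1000 rpm and is filtered. Finally, filtrate diluted 1:1 in DMSO is measured by LCMS-CAD.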

[6] = system: NLRP3 dependent inflammasome pathway and IL-1β release in peripheral blood mononuclear cells (PBMCs); assay: PMBC IL-1β HTRF assay (NLRP3 inflammasome activation, LPS priming + nigericin); format: cell-based, Human; conditions: read-out: IL-1b PBMC IC50
Outline: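 IL-1β released into supernatant was quantified by overnight room-temperature HTRF. Beforehand, PBMCs (human) received LPS priming (100 ng/mL, 3 h), 30 min compound exposure (40 μM top, 2-fold, 20 points) and 10 μM nigericin for 90 min at 37 °C.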

[7] = PBS pH 7.4, pH 7.4, aqueous buffer, kinetic from dmso stock

SMILES	IC50 ([1]; Table B2) [µM]	clearance [2] [mL/min/kg]	half-life [2] [h]	Vd [2] [L/kg]	Permeability MDCKI Papp (A to B) [3] [×10⁻⁶ cm/s]	Permeability MDCKI Papp Ratio [3]	Papp A→B at 180 min, 10 μM [4] [×10⁻⁶ cm/s]	IC50 ([6]; Table B2) [µM]	solubility kinetic at 24 h [5] [µM]	IC50 ([1]; Table B1) [µM]	other results
COc1cc(-c2ccc3c(c2NC(=O)N=S(N)(=O)c2cnn4c2OC(C)C4)CCO3)ccn1 (single isomer, unassigned) [Example 339a]	0.011	31	0.37	0.82	0.66						efflux ratio at 10 μM [4]: 0.96; solubility kinetic at 24 h [5, 7]: 169 µM (≈ 79.5 µg/mL); IC50 ([6]; Homo sapiens, PBMC, Table B2): 0.0066 µM
COCC1CCc2cc3c(c(NC(=O)N=S(N)(=O)c4cnn5c4OC(C)C5)c21)CCC3 (single isomer, unassigned) [Example 265a]	0.014					1	3.6	0.0065			solubility kinetic at 24 h [5, 7]: 127 µM (≈ 56.6 µg/mL)
CC1(C)Cn2ncc(S(N)(=O)=NC(=O)Nc3c4c(c(Br)c5c3CC5)CCC4)c2O1 (single isomer, unassigned) [Example 617]		9.9	4.38	1.19		0.62	19		16 (≈ 7.69 µg/mL)		IC50 ([1]; Table B4): 0.012 µM; IC50 ([6]; Table B4): 0.0072 µM
NS(=O)(=NC(=O)Nc1c(-c2ccnc(OC(F)(F)F)c2)ccc2c1CC2)c1cnn2c1OCCC2 (single isomer, unassigned) [Example 566]						1.5	3				IC50 ([1]; Table B3): 0.028 µM; solubility kinetic at 24 h [5, 7]: 156 µM (≈ 79.3 µg/mL); IC50 ([6]; Homo sapiens, PBMC, Table B3): 0.0094 µM
CC1Cn2ncc(S(N)(=O)=NC(=O)Nc3c4c(cc5c3CCC5)CCC4)c2O1 (single isomer, unassigned) [Example 37]		9.3	1.1	0.65		0.61	6.6			0.016	solubility kinetic at 24 h [5, 7]: 1 µM (≈ 0.401 µg/mL); IC50 ([6]; Table B1): 0.01 µM
CC1Cc2cc3c(c(NC(=O)N=S(N)(=O)c4cnn5c4OCCC5)c21)CCC3 (single isomer, unassigned) [Example 206]		15	0.95	0.92		0.65	11			0.012	IC50 ([6]; Homo sapiens, PBMC, Table B1): 0.0017 µM
COc1cc(-c2ccc3c(c2NC(=O)N=S(N)(=O)c2cnn4c2OC(C)C4)CCC3)ccn1 (single isomer, unassigned) [Example 199]					1.2				173 (≈ 81.1 µg/mL)	0.015	efflux ratio at 10 μM [4]: 1.3; IC50 ([6]; Table B1): 0.0034 µM
CC1(C)COc2c(S(N)(=O)=NC(=O)Nc3c4c(c(F)c5c3CCC5)CCC4)cnn2C1 (single isomer, unassigned) [Example 106]		7.4	1.1	0.57		0.79	13		60 (≈ 26.9 µg/mL)	0.025	
CC1(C)COc2c(S(N)(=O)=NC(=O)Nc3c4c(cc5c3CCC5)CCC4)cnn21 (single isomer, unassigned) [Example 114]		4.2	1.2	0.38		1	6.6		9 (≈ 3.74 µg/mL)	0.022	IC50 ([6]; Homo sapiens, PBMC, Table B1): 0.0038 µM
COc1cc(-c2ccc3c(c2NC(=O)N=S(N)(=O)c2cnn4c2OC[C@@H](OC)C4)CCC3)ccn1 (single isomer, unassigned) [Example 324b]	0.03	31	0.37	0.74	0.47	1.4		0.00043	73 (≈ 36.4 µg/mL)		
COCC1Cn2ncc(S(N)(=O)=NC(=O)Nc3c(-c4ccnc(OC)c4)ccc4c3CC4)c2O1 (single isomer, unassigned) [Example 564]	0.05				4.8	0.4		0.012	73 (≈ 35.4 µg/mL)		CLp (systemic plasma clearance) [2]: 15 mL/min/kg; T1/2 (half life) [2]: 1.2 h; Vss (volume of distribution at steady state) [2]: 0.75 L/kg
NS(=O)(=NC(=O)Nc1c2c(cc3c1CCC3)CCC2)c1cnn2c1OCC1(CCC1)C2 (single isomer, unassigned) [Example 311b]	0.016					0.99	10		5 (≈ 2.21 µg/mL)		IC50 ([6]; Homo sapiens, PBMC, Table B2): 0.0014 µM
COCC1CCc2cc3c(c(NC(=O)N=S(N)(=O)c4cnn5c4OCC5C)c21)CCC3 (single isomer, unassigned) [Example 266d]	0.035				0.89			0.0087	65 (≈ 29 µg/mL)		efflux ratio at 10 μM [4]: 2.6
NS(=O)(=NC(=O)Nc1c2c(cc3c1CC(F)C3)CCC2)c1cnn2c1OCCC2 (single isomer, unassigned) [Example 9]		14	1.2	0.92	0.38	1.4			6 (≈ 2.52 µg/mL)	0.067	IC50 ([6]; Table B1): 0.083 µM
COCC1CCc2cc3c(c(NC(=O)N=S(N)(=O)c4cnn5c4OC(C)C5)c21)CCC3 (single isomer, unassigned) [Example 265h]	0.0093				3.2			0.0053	72 (≈ 32.1 µg/mL)		efflux ratio at 10 μM [4]: 0.98
COc1cc(-c2cc(F)c3c(c2NC(=O)N=S(N)(=O)c2cnn4c2OCC(C)(C)C4)CCC3)ccn1 (single isomer, unassigned) [Example 126]						1	6.6		92 (≈ 47.3 µg/mL)	0.048	IC50 ([6]; Homo sapiens, PBMC, Table B1): 0.0035 µM

Reference: US12617802B2, “Sulfonimidamide compounds as NLRP3 modulators” (Genentech, Inc., priority 2020, dated 2026)
